The source of these data is PubChem BioAssay (NCI).

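Where inhibition never reached the appropriate level, the endpoint shown equals the highest concentration tested. Otherwise, values were interpolated linearly from a five-concentration, 48-hour dose response in 96-well plates. GI50 is the concentration that inhibits growth by half. TGI: total growth inhibition.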 Bounds are passed on as bounds.

Holding throughout (test): growth of human tumour cells (NCI), 48 h
The subject of test [1] is HCT-116 colon.
For test [2], the system named is HOP-62 NSCLC.
For test [3], the system named is NCI-H460 lung.
In test [4] the test system is OVCAR-5 ovarian.
Test [5] deals with SF-539 CNS.
Test [6] concerns SNB-75 CNS.
The test system of test [7] is U251 CNS.
The subject of test [8] is SK-MEL-2 melanoma.
Test [9] concerns NCI/ADR-RES ovarian.
Test [10] has as its system BT-549 breast.

`CC1(C)CCc2cc3c(cc2O1)OCC1c2cc4c(cc2OC31)OCO4` (centres undefined): the TGI in test [1], in [2], in test [3], in [4], in [5] and in [6] was above 100 µM in each case. Moreover, the TGI in [7] is above 100 µM.
In the case of `COC(=O)C1=C(C(=O)OC)C23CC1C1C(C(=O)OC)=C(C(=O)OC)C12C1C=CC3C2C(=O)OC(=O)C21` (centres undefined), the TGI in test [1], in [2], in [3], in [4], in [5] and in test [8] was above 100 µM each time. Besides, the TGI was 47.7 µM in test [6] and above 100 µM in [7].
As for `CC(=O)O[C@]1(C)OC(=O)[C@@H](C)N1[N+](=O)[O-]`, the TGI in test [1], in [2], in [3], in test [4], in test [5] and in test [8] was above 100 µM in each case. The TGI in [6] and in [7] was above 100 µM in each case.
`O=C1c2ccccc2C(=O)c2c(NCCNCCO)ccc(O)c21`: the TGI was determined as 12.9 µM in [1]; 14.5 µM in test [2]; 6.85 µM in [3]; 8.33 µM in [4]; 12.1 µM in [5]; 14.7 µM in [8]. Moreover, the TGI turned out to be 15.7 µM in test [6] and 14.7 µM in test [7].
With `NNC(=S)N/N=C(/C(=O)Nc1cc(Cl)ccc1Cl)C1C(=O)Nc2ccccc2S1=O` (centres undefined), the TGI in [1], in test [2], in test [3], in test [4], in test [5] and in [8] was above 100 µM throughout. In addition, the TGI in test [6] and in [7] was above 100 µM throughout.
Consider `CCOC(=O)C1=C(O)CSC1=Nc1ccccc1`, for which the TGI in [1], in [2], in test [3], in test [4], in test [5] and in [8] was above 100 µM in each case. In addition, the TGI in test [6] is above 100 µM.
`Cn1nnnc1N/N=C/c1ccccc1`: the TGI in [1], in test [2], in [3], in [9], in test [4] and in [5] was above 10 µM throughout. Moreover, the TGI in test [8], in test [6] and in test [7] was above 10 µM each time.
Take `Cc1ccc(Nc2n[nH]c(=S)s2)cc1`: the TGI in [1], in test [2], in [3], in [9], in [4] and in [5] was above 100 µM throughout. Also, the TGI in test [6] and in test [7] was above 100 µM in each case.
As for `O=c1cccccc1NCCCCCCNc1cccccc1=O`, the TGI in test [1], in test [2], in [3], in [4], in test [8] and in [6] was above 100 µM each time. For the same compound, the TGI in test [7] is above 100 µM.
Regarding `COc1ccc2c(c1)[n+]([O-])c(-c1ccccc1)c(N)[n+]2[O-]`, the TGI in test [2] is 96.7 µM; in test [3] it was above 100 µM; in test [4] it was above 100 µM; in test [5], above 100 µM; in test [8], above 100 µM; in test [6], above 100 µM. In addition, the TGI in test [7] is above 100 µM.
Regarding `C=CC(C=O)C1(O)CCOC(=O)/C1=C\N` (centres undefined), the GI50 in test [1], in test [2], in [3], in test [9], in [4] and in [8] was above 100 µM each time. The GI50 in [7] is above 100 µM. For the same compound, the TGI in test [1], in test [2], in test [3], in test [9], in test [4] and in test [8] was above 100 µM each time. The TGI in [7] was above 100 µM.
As to `O=C1OCCC1C(O)C1c2ccccc2-c2ccccc21` (centres undefined), the TGI in test [1], in test [2], in [3], in test [4], in test [8] and in [6] was above 100 µM in each case. The same compound showed a TGI in test [7] above 100 µM.
Regarding `COc1ccc(C(=O)C(C(=O)C(=O)Nc2ccc(Cl)c(Cl)c2)c2ccc(OC)cc2)cc1` (centres undefined), the TGI in [1], in test [2], in [3], in test [4], in test [5] and in [8] was above 100 µM throughout. Besides, the TGI in test [6] and in test [7] was above 100 µM in each case.
`Cc1cccc(C(=O)/C=C/SC(=NC#N)SCc2ccccc2)c1`: the GI50 in test [10] is 16.1 µM; in test [1], 27.2 µM; in [2], 23.2 µM; in test [3] it was 36.5 µM; in test [9] it was 24.4 µM; in test [4] it was 19.4 µM. The GI50 in test [5] is 6.67 µM; in test [8], 48.5 µM; in test [7], 22.5 µM. Besides, the TGI in [10] is 36.7 µM; in test [1], above 100 µM; in [2] it was 45.4 µM; in [3], above 100 µM; in test [9], 64.5 µM; in [4], 38.1 µM. Moreover, the TGI was 31.7 µM in test [5], above 100 µM in [8] and 99.4 µM in test [7].
